Literature values, collected in patent US20110301091A1, “COMPOSITIONS AND METHODS FOR REDUCING THE SIGNS OF AGING OF THE SKIN” (priority 2008, published 2011).

Assays:
[1] = system: laboratory animals
[2] = system: UV-irradiated human fibroblasts
[3] = system: epigenetic patterns
[4] = system: wrinkle formation; details: clinical study
[5] = system: type I collagen
[6] = system: skin characteristics; details: in vivo
[7] = system: UV-induced ceramide production; details: free radical scavenger
[8] = system: heparan-sulfate PGs (HS-PGs); details: organotypical model of corticosteroid atrophic human skin
[9] = system: MMP-1; details: human keratinocytes; via ERK and AP-1 inhibition
[10] = system: photoaged skin; details: topical application
[11] = system: dermal aging; details: animal studies; mechanism of reducing oxidative stress and apoptosis
[12] = system: photoaging; details: topical application of folic acid and creatine

## Oc1ccc(C=Cc2cc(O)cc(O)c2)cc1 [Resveratrol]
[1]
  aging and lifespan: slow down aging and extend the lifespan

## COc1cc(O)c(C(=O)[C@@H]2[C@H](CC=C(C)C)C(C)=CC[C@H]2c2ccccc2)c(O)c1 [Panduratin A]
[2]
  matrix metalloproteinase (MMP) I synthesis: decreased
  type I procollagen synthesis: increased

## lunasin
[3]
  epigenetic patterns: modify epigenetic patterns

## Ziyuglycoside
[4]
  wrinkle formation: decrease wrinkle formation
[5]
  expression of type I collagen: increased the expression of type I collagen in a dose-dependent manner

## C[C@]12CC[C@H](O)CC1=CC[C@@H]1[C@@H]2CC[C@]2(C)C(=O)CC[C@@H]12 [Dehydroepiandrosterone (DHEA), Dehydroepiandrosterone]
[6]
  effects on skin characteristics: beneficial effects on skin characteristics

## Vitamin E
[7]
  UV-induced ceramide production: inhibited

## C-Xyloside
[8]
  expression of heparan-sulfate PGs (HS-PGs): improved expression of heparan-sulfate PGs

## Triphlorethol-A
[9]
  MMP-1 inhibition: inhibition of MMP-1

## CCCCCCCC(=O)C(CCCCCC)C(=O)NC(CO)CO (stereo not drawn) [K6PC-5]
[10]
  skin barrier, fibroblast count and function: improving skin barrier and increasing fibroblast count and function

## growth hormone
[11]
  dermal aging: slow down dermal aging

## COc1ccc2[nH]cc(CCNC(C)=O)c2c1 [melatonin]
[11]
  dermal aging: slow down dermal aging

## Nc1nc2ncc(CNc3ccc(C(=O)N[C@@H](CCC(=O)O)C(=O)O)cc3)nc2c(=O)[nH]1 [folic acid]
[12]
  photoaging: improved photoaging

## CN(CC(=O)O)C(=N)N [creatine]
[12]
  photoaging: improved photoaging
